Test results: patent US9040713B2, “Methods of managing blood sugar levels and compositions related thereto” (EMORY UNIVERSITY, priority 2010, dated 2015)

Assays:
IR-EGFR = molecular target: T1, IR-EGFR (Homo sapiens, UniProt P00533+P06213); assay: His-tagged chimaeric receptor phosphorylation in CHO cells; assay type: cell-based; settings: 5 μM, 30 min
T1 construct: the cDNA encoding extracellular IR was fused to intracellular IGFR or EGFR; expressed in transfected cells; host or cells: CHO
Procedure: (§1) (A) Chemical structure of 4524-E7. (B) Effect of 4524-E7 and other 1,4-naphthoquinone derivatives on IR phosphorylation in CHO-IR cells. CHO-IR cells were cultured in 96-well plates and treated with 5 μM compounds for 15 min at 37 C. Cells were lysed, and IR phosphorylations were tested by ELISA. The IR phosphorylation activities of the tested compounds were expressed as a percentage of the vehicle. (C) 4524-E7 and 1,4-naphthoquinone derivates activate IR and its downstream signaling in CHO-IR cells. […] The cell lysates were analyzed by immunoblotting with various indicated antibodies. The phosphorylated IR was immunoprecipitated using PY20 and analyzed by immunoblotting with anti-IR13 antibody. […] The phosphorylation of each receptor was determined by Western blot using specific antibodies as indicated. (E) 4524-E7 activates IR through its ICD. Upper panel: Diagram of chimaeric receptors. Lower panel: His-tagged wild-type IR, IGFR-IR, IR-IGFR, and IR-EGFR constructs were transfected into CHO cells followed vehicle or 5 μM 4524-E7 treatment for 30 min. Then the cells were lysated and the transfected receptor fused to His tag were pulled down with Ni+ beads, followed by western blot against anti-p-Tyr and anti-His. The cell lysates were tested with anti-p-Akt and anti-Akt.
(§2) The cDNA encoding wild type IR was introduced into the pcDNA3.1/V5-His-TOPO vector. […]

MET = MET (Homo sapiens, UniProt P08581); assay: RTK kinase profile screen assay; assay type: biochemical; settings: 10 μM
IGFR-IR hybrid = assay: His-tagged chimaeric receptor phosphorylation in CHO cells; assay type: cell-based, human; settings: 5 μM, 30 min
Procedure: as §1, §2

IR-IGFR = assay: as above; assay type: cell-based, human; settings: 5 μM, 30 min
Procedure: as §1, §2

[1] = test system: EGFR, ErbB2, EphAl, FGFR1, VEGFR1, cMet, TrkB, PDGFRa, RET; assay: RTK kinase profile screen assay; assay type: biochemical
MCF7 cells = assay: Proliferation of MCF7 cells; assay type: cell-based
ob/ob mice = assay: Plasma insulin in ob/ob mice; assay type: in vivo, mouse; settings: single oral doses
Procedure: After a 12 h fasting, ob/ob mice were bled from the tail vein for a baseline (time −60 minutes) measurement. Then animals were orally administered 5 mg/kg compound in 0.5% methylcellulose. One hour after the drug administration, glucose (2 g/kg) was administrated intraperitoneally. Blood glucose levels were measured 0, 30, 60, 90, 120, and 180 min after administration of glucose. The blood was collected in tubes, kept at 4° C. overnight, and plasma was prepared by centrifugation (2,000 g, 20 min). Plasma insulin was measured by enzyme-linked immunosorbent assay with a rat insulin kit (Crystal Chem. Inc., USA). Insulin was quantified using the insulin standard curve.

GST-IRTK = molecular target: T2, GST-IRTK (Homo sapiens, UniProt P06213); assay: UV-absorption spectra titration; assay type: binding
T2 construct: GST-tagged IRTK (GST-IRTK, a.a. 1011-1382); purchased Invitrogen
Procedure: UV-Vis absorption for protein binding was obtained using the Cary 300 UV-Visible spectrophotometer (Varian Inc., Palo Alto, Calif.) equipped with 1.0 cm quartz cells. The spectra were scanned from 200 to 800 nm in Tris buffer (0.01M Tris, 0.05M NaCl, 10 mM MgCl2, pH 7.8). During the spectrophotometric titrations, protein (GST or GST-IRTK) was added to a cell containing a constant amount of compound. The absorbances at 602 nm were recorded (data were read for three times and mean value was obtain by averaging) and the obtained data were processed with KaleidaGraph (Synergy Software). Repeated measurements were done for all the samples and no significant differences were observed (The reproducibility errors is less than 5%). Binding results from the UV titration experiments were fit with a one site interaction model: r=K*Cfree/(1+K*Cfree) Where r represents the moles of bound compound per mole of protein, K is macroscopic binding constants, and Cfree is the free compound concentration in equilibrium with the complex. Insulin Competition Assay
Several small molecules bind to the intracellular kinase domain of IR (IRTK) and provoke its activation. DDN might also interact with the IRTK to activate IR. To test this possibility, an UV-absorption spectra analysis was performed using recombinant IRTK. […]

T2 sequence (P06213 1011-1382): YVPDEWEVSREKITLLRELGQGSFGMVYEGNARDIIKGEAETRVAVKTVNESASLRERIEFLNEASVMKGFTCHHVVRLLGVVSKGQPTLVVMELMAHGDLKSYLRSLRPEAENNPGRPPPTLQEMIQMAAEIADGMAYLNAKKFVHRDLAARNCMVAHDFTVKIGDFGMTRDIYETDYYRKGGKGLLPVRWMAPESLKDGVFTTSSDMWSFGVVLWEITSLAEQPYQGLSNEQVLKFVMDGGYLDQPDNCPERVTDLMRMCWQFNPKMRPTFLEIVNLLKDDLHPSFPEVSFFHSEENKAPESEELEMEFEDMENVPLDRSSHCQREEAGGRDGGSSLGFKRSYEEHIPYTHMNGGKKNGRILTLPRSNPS
Sequence of MET (P08581 25-1390): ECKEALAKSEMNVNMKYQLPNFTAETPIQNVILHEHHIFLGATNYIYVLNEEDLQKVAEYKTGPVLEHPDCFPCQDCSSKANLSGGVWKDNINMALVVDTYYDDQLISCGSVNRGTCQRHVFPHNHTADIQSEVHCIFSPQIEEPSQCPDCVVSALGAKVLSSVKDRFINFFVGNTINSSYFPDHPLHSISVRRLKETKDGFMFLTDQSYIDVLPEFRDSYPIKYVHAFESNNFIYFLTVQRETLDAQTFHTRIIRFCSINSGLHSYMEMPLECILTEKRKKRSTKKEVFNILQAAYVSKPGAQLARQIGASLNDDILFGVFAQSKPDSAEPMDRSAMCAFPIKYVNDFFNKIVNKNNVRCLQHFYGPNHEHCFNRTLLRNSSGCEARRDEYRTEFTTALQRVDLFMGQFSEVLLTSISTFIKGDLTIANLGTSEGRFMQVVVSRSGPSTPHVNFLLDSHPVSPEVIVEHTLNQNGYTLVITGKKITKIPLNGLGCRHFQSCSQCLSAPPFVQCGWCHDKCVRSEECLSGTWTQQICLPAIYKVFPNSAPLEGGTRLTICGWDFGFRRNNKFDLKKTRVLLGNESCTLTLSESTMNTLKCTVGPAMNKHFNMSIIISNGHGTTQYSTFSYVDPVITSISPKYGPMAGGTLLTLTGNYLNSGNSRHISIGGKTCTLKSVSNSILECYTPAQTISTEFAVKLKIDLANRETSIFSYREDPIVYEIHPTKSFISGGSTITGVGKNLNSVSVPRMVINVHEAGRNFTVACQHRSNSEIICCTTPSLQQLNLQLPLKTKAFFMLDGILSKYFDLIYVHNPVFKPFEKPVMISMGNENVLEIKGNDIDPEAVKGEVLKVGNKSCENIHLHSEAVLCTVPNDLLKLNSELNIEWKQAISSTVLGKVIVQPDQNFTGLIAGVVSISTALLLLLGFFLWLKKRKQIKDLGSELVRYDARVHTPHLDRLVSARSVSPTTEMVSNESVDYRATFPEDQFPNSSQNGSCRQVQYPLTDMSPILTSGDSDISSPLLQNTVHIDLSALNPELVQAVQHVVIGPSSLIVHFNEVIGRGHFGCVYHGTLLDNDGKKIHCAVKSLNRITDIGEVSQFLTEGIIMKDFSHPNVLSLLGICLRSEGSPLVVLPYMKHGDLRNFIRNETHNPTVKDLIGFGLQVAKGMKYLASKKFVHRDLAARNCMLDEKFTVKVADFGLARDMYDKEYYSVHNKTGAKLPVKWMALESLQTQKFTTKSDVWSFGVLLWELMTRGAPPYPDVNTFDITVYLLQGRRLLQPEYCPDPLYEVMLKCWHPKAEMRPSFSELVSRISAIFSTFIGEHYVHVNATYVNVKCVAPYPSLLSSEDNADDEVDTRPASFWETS
T1 sequence (P00533 669-1210 limits assumed, one chain of several): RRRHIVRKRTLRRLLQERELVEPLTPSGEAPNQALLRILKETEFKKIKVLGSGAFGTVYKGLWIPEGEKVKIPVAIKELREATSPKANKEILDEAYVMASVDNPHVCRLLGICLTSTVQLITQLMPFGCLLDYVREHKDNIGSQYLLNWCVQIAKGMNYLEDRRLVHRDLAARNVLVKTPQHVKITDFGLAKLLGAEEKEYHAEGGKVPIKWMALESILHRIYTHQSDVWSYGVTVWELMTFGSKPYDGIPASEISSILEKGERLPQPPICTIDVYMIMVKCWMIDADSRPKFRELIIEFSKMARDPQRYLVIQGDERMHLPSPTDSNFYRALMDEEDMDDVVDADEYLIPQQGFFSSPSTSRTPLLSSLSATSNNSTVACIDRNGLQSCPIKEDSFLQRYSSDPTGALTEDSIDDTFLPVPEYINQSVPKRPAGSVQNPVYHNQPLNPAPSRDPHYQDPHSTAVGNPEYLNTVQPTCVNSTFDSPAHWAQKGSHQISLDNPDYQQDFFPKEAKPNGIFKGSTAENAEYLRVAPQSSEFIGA

Row | Structure (SMILES) | tyrosine phosphorylation of chimaeric receptor (IR-EGFR) | inhibition of MET (MET) | tyrosine phosphorylation of chimaeric receptor (IGFR-IR hybrid) | tyrosine phosphorylation of chimaeric receptor (IR-IGFR) | activation of tested RTKs [1] | proliferation of MCF7 cells (MCF7 cells) | plasma insulin levels (ob/ob mice) | Kd (GST-IRTK; UV titration, absorbance at 602 nm, read-out: binding constant Kd) [µM] | peak absorption at 560 and 602 nm in presence of GST-IRTK (GST-IRTK; spectra 200 to 800 nm)
1 | O=C1c2ccccc2C(=O)C2SC(Nc3ccc(Cl)cc3)=NC12 (stereo not drawn) [4524-E7, 2-((4-chlorophenyl)amino)naphtho[2,3-d]thiazole-4,9(3aH,9aH)-dione] | not phosphorylated | slightly inhibited | selective tyrosine phosphorylation | not phosphorylated | none of the tested RTKs | not able to induce the proliferation of MCF7 cells |  |  | 
2 | CC(=O)Oc1ccc(OC(C)=O)c2c1C(=O)C(Cl)=C(Cl)C2=O [DDN, 5,8-diacetyloxy-2,3-dichloro-1,4-naphthoquinone] |  |  |  |  |  |  | no significant effect on plasma insulin levels | ~3.27 | enhanced the peak absorption at 560 and 602 nm
